The values below come from patent US20040185430A1, “Process for evaluating the cosmetic or dermatological activity of a product and use of plant material” (priority 2002, published 2004).

The subject of assay [1] is Carrot. Briefly: Moisturizing effect, CM820 corneometer, carrot model. The settings on record: 4 mg/cm2 topical, T 2 hours vs T0, corrected for control region. The protocol: (§1) Measurements were carried out at approximately 22° C. and a relative humidity ranging from 53% to 67%. Fruits and vegetables: 2 samples per product, measured at intervals of 24 hours. Application to regions of 4 cm^2. A control region on each sample. Application of the formulations at the rate of 4 mg/cm^2 (search for the direction of the action and not for the performance of the product). Moisturizing—Measurement with a CM820 corneometer of the mean value of 5 determinations. Measurements at: T0: reference value before application of the formulations. T 2 hours for the active principles (single measurement after observation of appearance of cuts on the leaves brought about by the measuring pressure of the corneometer). T 1 hour and T 4 hours for the commercial formulations. The values are the mean of the measurements at Ti divided by those at TO corrected for the variations in the control regions.

Assay [2] has as its system Potato, BF15. Briefly: Moisturizing effect, CM820 corneometer, potato model. The conditions noted are these: 4 mg/cm2 topical, T 2 hours vs T0, corrected for control region. How it is done: as §1
In assay [3] the test system is Apples, Golden Delicious. Briefly: Moisturizing effect, CM820 corneometer, apple model. The settings on record: 4 mg/cm2 topical, T 2 hours vs T0, corrected for control region. The protocol: as §1
Assay [4] has as its system Ficus. Briefly: Moisturizing effect, CM820 corneometer, Ficus leaves. The settings on record: Ficus leaf; 4 mg/cm2 topical; T 2 hours vs T0, corrected for control. How it is done:
as §1, with “Plants:” for “Fruits and vegetables:”, “Application” for “Application to regions”, “the formulations over the whole of the vernicose (upper) surface. One leaf per formulation+one” for “4 cm^2. A”, “leaf. […]” for “region on each sample.”

Assay [5] concerns Syngonium. Nature of the assay: Moisturizing effect, CM820 corneometer, Syngonium leaves. The conditions noted are these: Syngonium leaf; 4 mg/cm2 topical; T 2 hours vs T0, corrected for control. The protocol:
as §1, with “Plants:” for “Fruits and vegetables:”, “Application” for “Application to regions”, “the formulations over the whole of the vernicose (upper) surface. One leaf per formulation+one” for “4 cm^2. A”, “leaf. […]” for “region on each sample.”

For assay [6], the system named is Spatyphillum. Nature of the assay: Moisturizing effect, CM820 corneometer, Spatyphillum leaves. The settings on record: Spatyphillum leaf; 4 mg/cm2 topical; T 2 hours vs T0, corrected for control. The protocol:
as §1, with “Plants:” for “Fruits and vegetables:”, “Application” for “Application to regions”, “the formulations over the whole of the vernicose (upper) surface. One leaf per formulation+one” for “4 cm^2. A”, “leaf. […]” for “region on each sample.”

Assay [7] relates to Man. Briefly: Moisturizing effect, CM820 corneometer, human model (inner forearm). The format is in vivo. The conditions noted are these: 4 mg/cm2 topical, T 2 hours vs T0, corrected for control region. The protocol: 2) To measure the moisturizing and the barrier effects, the human models (2 male volunteers and 2 female volunteers) took part in the tests and measurements under environmental conditions which were also controlled. Measurements were carried out at approximately 22° C. and a relative humidity ranging from 53% to 67%. Human beings: 4 models per product. Application to an inner region of the arm. Three regions of measurements, including a control, on the inner part of each forearm were conducted. The models were kept calm under climate-controlled measuring conditions for 15 minutes before each series of measurements. Application of each formulation over an area of 16 cm^2. Application of the formulations at the rate of 4 mg/cm^2 (search for the direction of the action and not for the performance of the product). Moisturizing—Measurement with a CM820 corneometer of the mean value of 5 determinations. Measurements at: T0: reference value before application of the formulations. T 2 hours for the active principles (single measurement after observation of appearance of cuts on the leaves brought about by the measuring pressure of the corneometer). T 1 hour and T 4 hours for the commercial formulations. The values are the mean of the measurements at Ti divided by those at TO corrected for the variations in the control regions.

Assay [8] relates to Carrot. Nature of the assay: Barrier effect, insensible water loss (IWL), Dermalab, carrot model. The conditions noted are these: 4 mg/cm2 topical, T 2 hours vs T0, corrected for control region. The protocol: (§2) Measurements were carried out at approximately 22° C. and a relative humidity ranging from 53% to 67%. Fruits and vegetables: 2 samples per product, measured at intervals of 24 hours. Application to regions of 4 cm^2. A control region on each sample. Application of the formulations at the rate of 4 mg/cm^2 (search for the direction of the action and not for the performance of the product). The plant and human models and the products tested were the same as in Example 1. The IWL (insensible water loss) measurements were carried out according to the same protocol as above. IWL: Measurement with a Dermalab (vertical probe in contact with the measurement region, under minimum pressure). For the plants, a glass sheet was placed under the measurement region. 2 series of consecutive measurements of 25 values were conducted. The values are the mean of the measurements at Ti divided by those at T0 corrected for the variations in the control regions.

For assay [9], the system named is Potato, BF15. Nature of the assay: Barrier effect, insensible water loss (IWL), Dermalab, potato model. The conditions noted are these: 4 mg/cm2 topical, T 2 hours vs T0, corrected for control region. The protocol:
as §2

Assay [10] concerns Ficus. Briefly: Barrier effect, insensible water loss (IWL), Dermalab, Ficus leaves. The conditions noted are these: Ficus leaf; 4 mg/cm2 topical; T 2 hours vs T0, corrected for control. The protocol:
as §2, with “Plants:” for “Fruits and vegetables:”, “Application” for “Application to regions”, “the formulations over the whole of the vernicose (upper) surface. One leaf per formulation+one” for “4 cm^2. A”, “leaf. […]” for “region on each sample.”

For assay [11], the system named is Syngonium. Nature of the assay: Barrier effect, insensible water loss (IWL), Dermalab, Syngonium leaves. The conditions noted are these: Syngonium leaf; 4 mg/cm2 topical; T 2 hours vs T0, corrected for control. How it is done:
as §2, with “Plants:” for “Fruits and vegetables:”, “Application” for “Application to regions”, “the formulations over the whole of the vernicose (upper) surface. One leaf per formulation+one” for “4 cm^2. A”, “leaf. […]” for “region on each sample.”

For assay [12], the system named is Spatyphillum. Briefly: Barrier effect, insensible water loss (IWL), Dermalab, Spatyphillum leaves. The settings on record: Spatyphillum leaf; 4 mg/cm2 topical; T 2 hours vs T0, corrected for control. The protocol: as §2, with “Plants:” for “Fruits and vegetables:”, “Application” for “Application to regions”, “the formulations over the whole of the vernicose (upper) surface. One leaf per formulation+one” for “4 cm^2. A”, “leaf. […]” for “region on each sample.”

The subject of assay [13] is Man. Briefly: Barrier effect, insensible water loss (IWL), Dermalab, human model (inner forearm). The class given is in vivo. The settings on record: 4 mg/cm2 topical, T 2 hours vs T0, corrected for control region. How it is done:
2) To measure the moisturizing and the barrier effects, the human models (2 male volunteers and 2 female volunteers) took part in the tests and measurements under environmental conditions which were also controlled. Measurements were carried out at approximately 22° C. and a relative humidity ranging from 53% to 67%. Human beings: 4 models per product. Application to an inner region of the arm. Three regions of measurements, including a control, on the inner part of each forearm were conducted. The models were kept calm under climate-controlled measuring conditions for 15 minutes before each series of measurements. Application of each formulation over an area of 16 cm^2. Application of the formulations at the rate of 4 mg/cm^2 (search for the direction of the action and not for the performance of the product). The plant and human models and the products tested were the same as in Example 1. The IWL (insensible water loss) measurements were carried out according to the same protocol as above. IWL: Measurement with a Dermalab (vertical probe in contact with the measurement region, under minimum pressure). For the plants, a glass sheet was placed under the measurement region. 2 series of consecutive measurements of 25 values were conducted. The values are the mean of the measurements at Ti divided by those at T0 corrected for the variations in the control regions.

Assay [14] relates to Apples, Golden Delicious. Briefly: Barrier effect, insensible water loss (IWL), Dermalab, apple model. The conditions noted are these: 4 mg/cm2 topical, T 2 hours vs T0, corrected for control region. How it is done:
as §2

Consider `OCC(O)CO` [Glycerol], for which the “Variation T 2 hours/T0 Corneo” value is listed as 62% with Carrot [1]; 69% in the assay with Potato, BF15 [2]; 16% in the assay with Apples, Golden Delicious [3]; 47% in the assay on Ficus [4]; 38% in the assay on Syngonium [5]; 52% in the assay with Spatyphillum [6]. Further, the “Variation T 2 hours/T0 Corneo” value with Man [7] worked out at 22%. The “Variation T 2 hours/T0 IWL” value is on record as 1% with Carrot [8]; 188% with Potato, BF15 [9]; 183% in the assay on Ficus [10]; 40% in the assay on Syngonium [11]; 14% with Spatyphillum [12]; 55% in the assay with Man [13].
As to `CCCCCCCCCCCCOP(=O)(O)O` [Surfactant, Lauryl phosphate], the “Variation T 2 hours/T0 Corneo” value came out at 271% with Carrot [1]; 1144% in the assay on Potato, BF15 [2]; 2% with Apples, Golden Delicious [3]; 20% in the assay on Ficus [4]; 48% with Syngonium [5]; 30% in the assay on Spatyphillum [6]. The “Variation T 2 hours/T0 Corneo” value in the assay with Man [7] was found to be 5%. In addition, the “Variation T 2 hours/T0 IWL” value came out at 2% in the assay with Carrot [8]; 48% in the assay on Potato, BF15 [9]; 0% with Apples, Golden Delicious [14]; 104% in the assay with Syngonium [11]; 13% with Spatyphillum [12]; 19% in the assay with Man [13].
